Test results published in PubChem BioAssay AID248 (DTP/NCI, 2004).
Where “and” joins values, the source holds several entries; their conditions need not be identical. Equal values may be shown once. Inconclusive results and toxic doses are left out. No stated cut-off is given here; in the data, active means T/C of 150% or more; inactive means T/C below 125%.

Test system: L1210 leukemia ip in BDF1 mice, survival T/C
Assay: NCI In Vivo Anticancer Drug Screen. Data for tumor model L1210 Leukemia (intraperitoneal) in B6D2F1 (BDF1) mice
Settings: endpoint: mean survival time, higher = longer survival
Outline: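 In this screen, tumor-bearing mice given compound are compared to those given vehicle, and their survival values are reported as a treated-to-control quotient.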

[1] = dose: 50.0 mg/kg/injection, schedule: Q01DX001 (ip), vehicle: Klucel (hydroxypropylcellulose) (HPC)
[2] = dose: 100.0 mg/kg/injection, schedule: Q01DX001 (ip), vehicle: Klucel (hydroxypropylcellulose) (HPC)
[3] = dose: 100.0 mg/kg/injection, schedule: Q04DX003 (ip), vehicle: saline
[4] = dose: 200.0 mg/kg/injection, schedule: Q04DX003 (ip), vehicle: saline
[5] = dose: 400.0 mg/kg/injection, schedule: Q04DX003 (ip), vehicle: saline
[6] = dose: 100.0 mg/kg/injection, schedule: Q04DX002 (ip), vehicle: saline
[7] = dose: 200.0 mg/kg/injection, schedule: Q04DX002 (ip), vehicle: saline
[8] = dose: 400.0 mg/kg/injection, schedule: Q04DX002 (ip), vehicle: saline
[9] = dose: 25.0 mg/kg/injection, schedule: Q04DX003 (ip), vehicle: saline
[10] = dose: 50.0 mg/kg/injection, schedule: Q04DX003 (ip), vehicle: saline
[11] = dose: 100.0 mg/kg/injection, schedule: Q01DX009 (ip), vehicle: Klucel (hydroxypropylcellulose) (HPC)
[12] = dose: 100.0 mg/kg/injection, schedule: Q04DX003 (ip), vehicle: Klucel (hydroxypropylcellulose) (HPC)
[13] = dose: 200.0 mg/kg/injection, schedule: Q01DX009 (ip), vehicle: Klucel (hydroxypropylcellulose) (HPC)
[14] = dose: 200.0 mg/kg/injection, schedule: Q04DX003 (ip), vehicle: Klucel (hydroxypropylcellulose) (HPC)
[15] = dose: 400.0 mg/kg/injection, schedule: Q01DX009 (ip), vehicle: Klucel (hydroxypropylcellulose) (HPC)
[16] = dose: 400.0 mg/kg/injection, schedule: Q04DX003 (ip), vehicle: Klucel (hydroxypropylcellulose) (HPC)
[17] = dose: 50.0 mg/kg/injection, schedule: Q01DX009 (ip), vehicle: saline
[18] = dose: 100.0 mg/kg/injection, schedule: Q01DX009 (ip), vehicle: saline
[19] = dose: 200.0 mg/kg/injection, schedule: Q01DX009 (ip), vehicle: saline
[20] = dose: 100.0 mg/kg/injection, schedule: Q04DX002 (ip), vehicle: saline with Tween-80
[21] = dose: 200.0 mg/kg/injection, schedule: Q04DX002 (ip), vehicle: saline with Tween-80
[22] = dose: 400.0 mg/kg/injection, schedule: Q04DX002 (ip), vehicle: saline with Tween-80
[23] = dose: 100.0 mg/kg/injection, schedule: Q01DX001 (ip), vehicle: saline
[24] = dose: 200.0 mg/kg/injection, schedule: Q01DX001 (ip), vehicle: Klucel (hydroxypropylcellulose) (HPC)

Measured: T/C

Nc1ccc(CCc2nc(N)[nH]c(=O)c2CCCCc2ccccc2)cc1
inactive: dose: 25.0 mg/kg/injection, schedule: Q01DX001 (ip), vehicle: Klucel (hydroxypropylcellulose) (HPC) 98 % of control | [1] 96 % of control | [2] 88 % of control

CCOC(=O)C(C)SCC(CSC(C)C(=O)OCC)(CSC(C)C(=O)OCC)CSC(C)C(=O)OCC (centres undefined)
inactive: dose: 100.0 mg/kg/injection, schedule: Q01DX001 (ip), vehicle: saline with Tween-80 104 % of control | dose: 200.0 mg/kg/injection, schedule: Q01DX001 (ip), vehicle: saline with Tween-80 107 % of control | dose: 400.0 mg/kg/injection, schedule: Q01DX001 (ip), vehicle: saline with Tween-80 104 % of control

NOCCCCCCON
inactive: [3] 95 % of control | [4] 97 % of control | [5] 95 % of control

CN1C(=O)C(C)(C)C(=O)c2ccccc21
inactive: dose: 100.0 mg/kg/injection, schedule: Q04DX002 (ip), vehicle: other 90 % of control | dose: 200.0 mg/kg/injection, schedule: Q04DX002 (ip), vehicle: other 100 % of control | dose: 400.0 mg/kg/injection, schedule: Q04DX002 (ip), vehicle: other 97 % of control

COc1cc2c(cc1OC)C(C#N)C2 (centres undefined)
inactive: dose: 6.0 mg/kg/injection, schedule: Q01DX009 (ip), vehicle: Klucel (hydroxypropylcellulose) (HPC) 104 % of control | dose: 12.0 mg/kg/injection, schedule: Q01DX009 (ip), vehicle: Klucel (hydroxypropylcellulose) (HPC) 92 % of control | dose: 12.0 mg/kg/injection, schedule: Q04DX003 (ip), vehicle: Klucel (hydroxypropylcellulose) (HPC) 100 % of control and 105 % of control | dose: 25.0 mg/kg/injection, schedule: Q01DX009 (ip), vehicle: Klucel (hydroxypropylcellulose) (HPC) 100 % of control | dose: 25.0 mg/kg/injection, schedule: Q04DX003 (ip), vehicle: Klucel (hydroxypropylcellulose) (HPC) 100 % of control | dose: 50.0 mg/kg/injection, schedule: Q04DX003 (ip), vehicle: Klucel (hydroxypropylcellulose) (HPC) 97 % of control and 92 % of control

CCOP(=O)(CN1CCCCC1)OCC
inactive: [6] 104 % of control | [7] 96 % of control | [8] 104 % of control

CC[N+](C)(CC)CCN1c2ccccc2Sc2ccccc21
inactive: dose: 12.5 mg/kg/injection, schedule: Q04DX003 (ip), vehicle: saline 91 % of control | [9] 94 % of control and 86 % of control | [10] 86 % of control and 88 % of control

O=c1[nH]cnc2n[nH]nc12
inactive: dose: 176.0 mg/kg/injection, schedule: Q01DX009 (ip), vehicle: other 113 % of control | dose: 264.0 mg/kg/injection, schedule: Q01DX009 (ip), vehicle: other 117 % of control | dose: 400.0 mg/kg/injection, schedule: Q01DX009 (ip), vehicle: other 124 % of control

O=S(=O)(Cc1ccccc1)SSS(=O)(=O)Cc1ccccc1
inactive: dose: 75.0 mg/kg/injection, schedule: Q01DX001 (ip), vehicle: saline 98 % of control | dose: 150.0 mg/kg/injection, schedule: Q01DX001 (ip), vehicle: saline 106 % of control | dose: 300.0 mg/kg/injection, schedule: Q01DX001 (ip), vehicle: saline 95 % of control

C1=C(c2ccccc2)CCCC1
inactive: [11] 92 % of control | [12] 106 % of control | [13] 95 % of control | [14] 100 % of control | [15] 109 % of control | [16] 92 % of control

CCN(CC)CCN(C)CCN(CC)CC
inactive: [17] 91 % of control | [18] 102 % of control | [3] 93 % of control | [19] 101 % of control | [4] 98 % of control

CC(C)(C)c1cc(C=O)cc(C(C)(C)C)c1O
inactive: [20] 95 % of control | [21] 95 % of control | [22] 91 % of control

OCC(O)C(O)C(O)/C=N\O (centres undefined)
inactive: [3] 107 % of control | [4] 107 % of control | [5] 100 % of control

Nc1cccn2cnnc12
inactive: [23] 103 % of control | dose: 200.0 mg/kg/injection, schedule: Q01DX001 (ip), vehicle: saline 101 % of control | dose: 400.0 mg/kg/injection, schedule: Q01DX001 (ip), vehicle: saline 97 % of control

O=S(=O)(CCO)CCS(=O)(=O)CCO
inactive: dose: 75.0 mg/kg/injection, schedule: Q01DX009 (ip), vehicle: carboxymethylcellulose (CMC) 92 % of control | dose: 150.0 mg/kg/injection, schedule: Q01DX009 (ip), vehicle: carboxymethylcellulose (CMC) 102 % of control | dose: 300.0 mg/kg/injection, schedule: Q01DX009 (ip), vehicle: carboxymethylcellulose (CMC) 92 % of control

CC1N=C1c1ccccc1 (centres undefined)
inactive: [6] 102 % of control | [7] 115 % of control | [8] 105 % of control

CCOC(=O)c1sc2cc[nH]c2c1O
inactive: [1] 102 % of control | [2] 100 % of control | [24] 94 % of control

CCN1CCC(CN2c3ccccc3Sc3ccccc32)C1 (centres undefined)
inactive: dose: 25.0 mg/kg/injection, schedule: Q01DX009 (ip), vehicle: saline 105 % of control | [9] 94 % of control | [17] 110 % of control | [10] 102 % of control | [23] 98 % of control | [3] 112 % of control

CC(=O)c1ccc(OS(=O)(=O)c2ccc([N+](=O)[O-])cc2)cc1
inactive: [11] 90 % of control | [12] 94 % of control | [13] 90 % of control | [14] 94 % of control | [15] 86 % of control | [16] 89 % of control

CS/C(N)=N\NC(N)=S
inactive: [2] 96 % of control | [24] 88 % of control

COc1ccc2c(c1)CCC1=C2CCC2C1C(=O)CCC21OCCCO1 (centres undefined)
inactive: [12] 100 % of control | [14] 96 % of control | [16] 96 % of control

CCOP(=O)(OCC)OCCCN(CC)CC
inactive: [17] 101 % of control | [18] 96 % of control and 114 % of control | [3] 101 % of control | [19] 94 % of control and 105 % of control | [4] 98 % of control

S=c1[nH]c2cc(Cl)ccc2s1
inactive: dose: 100.0 mg/kg/injection, schedule: Q04DX002 (ip), vehicle: Klucel (hydroxypropylcellulose) (HPC) 93 % of control | dose: 200.0 mg/kg/injection, schedule: Q04DX002 (ip), vehicle: Klucel (hydroxypropylcellulose) (HPC) 96 % of control | dose: 400.0 mg/kg/injection, schedule: Q04DX002 (ip), vehicle: Klucel (hydroxypropylcellulose) (HPC) 86 % of control

Cc1cc(C(=O)O)c(C)n1-c1cccc(C(=O)O)c1
inactive: dose: 50.0 mg/kg/injection, schedule: Q01DX009 (ip), vehicle: Klucel (hydroxypropylcellulose) (HPC) 102 % of control | [2] 94 % of control | [11] 102 % of control | [24] 102 % of control | [13] 89 % of control | dose: 400.0 mg/kg/injection, schedule: Q01DX001 (ip), vehicle: Klucel (hydroxypropylcellulose) (HPC) 91 % of control

Cc1ccc(S(=O)(=O)N2CN(S(=O)(=O)c3ccc(C)cc3)CN(S(=O)(=O)c3ccc(C)cc3)C2)cc1
inactive: [20] 94 % of control | [21] 91 % of control | [22] 91 % of control

COC1OC2COC(c3ccccc3)OC2C(OC)C1OC(=O)c1ccccc1 (centres undefined)
inactive: [3] 93 % of control | [4] 91 % of control | [5] 98 % of control

Clc1ccnc(Cl)n1
inactive: [18] 97 % of control | [3] 96 % of control | [19] 101 % of control | [4] 96 % of control | dose: 400.0 mg/kg/injection, schedule: Q01DX009 (ip), vehicle: saline 97 % of control | [5] 97 % of control

CCOP(=O)(NC(C)(C)C)OCC
inactive: dose: 50.0 mg/kg/injection, schedule: Q01DX001 (ip), vehicle: carboxymethylcellulose (CMC) 107 % of control | dose: 100.0 mg/kg/injection, schedule: Q01DX001 (ip), vehicle: carboxymethylcellulose (CMC) 107 % of control | dose: 200.0 mg/kg/injection, schedule: Q01DX001 (ip), vehicle: carboxymethylcellulose (CMC) 105 % of control | dose: 400.0 mg/kg/injection, schedule: Q01DX001 (ip), vehicle: carboxymethylcellulose (CMC) 100 % of control

O=C(Nc1ccc(Nc2ccccc2)cc1)Nc1ccccc1F
inactive: [11] 97 % of control | [13] 95 % of control | [15] 97 % of control
